Data taken from patent US5616712A, “Acetylenes disubstituted with a phenyl or heteroaryl group and a 2-thio-1,2,3,4-tetrahdroquinolinyl, 2-alkylthio-3,4-dihydroquinolinyl or 2-alkoxy-3,4-dihydroquinolinyl group having retinoid-like biological activity” (Allergan, priority 1995, dated 1997).

Columns and labels:
[1] = test system: ornithine decarboxylase (ODC); assay: Inhibition of TPA induction of ornithine decarboxylase (ODC) (Table 2); type: cell-based; details: concentration which results in 80 per cent inhibition of the ODC induction activity by TPA
Excerpt: The retinoid-like activity of these compounds is confirmed through the classic measure of retinoic acid activity involving the effects of retinoic acid on ornithine decarboxylase. The original work on the correlation between retinoic acid and decrease in cell proliferation was done by Verma & Boutwell, Cancer Research, 1977, 37,2196-2201. That reference discloses that ornithine decarboxylase (ODC) activity increased precedent to polyamine biosynthesis. It has been established elsewhere that increases. in polyamine synthesis can be correlated or associated with cellular proliferation. Thus, if ODC activity could be inhibited, cell hyperproliferation could be modulated. […] IC80 is that concentration of the test compound (expresed in nanomolar (nmol)) which results in 80 per cent inhibition of the ODC induction activity by TPA.

[2] = test system: ornithine decarboxylase (ODC); details: qualitative; cited from earlier work

## CCOC(=O)c1ccc(C#Cc2ccc3c(c2)C(C)(C)CC(=O)N3C(C)C)cc1 [Compound 5]
[1]
  IC80: 6.4 nM

## CCOC(=O)c1ccc(C#Cc2ccc3c(c2)C(C)(C)CC(OC(C)C)=N3)cc1 [Compound 6, Ethyl 4-[(4,4-dimethyl-2-isopropoxy-3,4-dihydro-6-quinolinyl)ethynyl]benzoate]
[1]
  IC80: > 100 nM

## CCOC(=O)c1ccc(C#Cc2ccc3c(c2)C(C)(C)CC(SC)=N3)cc1 [Compound 9, Ethyl 4-[(4,4-dimethyl-2-methylthio-3,4-dihydro-6-quinolinyl)ethynyl]benzoate]
[1]
  IC80: 29 nM

## CCCCCCCSC1=Nc2ccc(C#Cc3ccc(C(=O)OCC)cc3)cc2C(C)(C)C1 [Compound 10, Ethyl 4-[(4,4-dimethyl-2-heptylthio-3,4-dihydro-6-quinolinyl)ethynyl]benzoate]
[1]
  IC80: > 60 nM

## CC1=C(/C=C/C(C)=C/C=C/C(C)=C/C(=O)O)C(C)(C)CCC1 [Retinoic acid]
[2]
  inhibition of TPA induction of ODC activity: inhibits this induction of ODC activity by TPA

## CCOC(=O)c1ccc(C#Cc2ccc3c(c2)C(C)(C)CC(=S)N3C(C)C)cc1 [Compound 7, Ethyl 4-[(4,4-dimethyl-2-thio-1,2,3,4-tetrahydro-1-iso-propyl-6-quinolinyl)ethynyl]benzoate]
[1]
  IC80: 5.5 nM

## CCOC(=O)c1ccc(C#Cc2ccc3c(c2)C(C)(C)CC(=S)N3)cc1 [Compound 8, Ethyl 4-[(4,4-dimethyl-2-thio-1,2,3,4-tetrahydro-6quinolinyl)ethynyl]benzoate]
[1]
  IC80: 54 nM

## CCCCCCCCCCCCCC(=O)O[C@@H]1[C@@H](C)[C@@]2(O)[C@@H](C=C(CO)C[C@]3(O)C(=O)C(C)=C[C@@H]23)[C@@H]2C(C)(C)[C@]12OC(C)=O [12-0-tetradecanoylphorbol-13-acetate]
[2]
  induction of ODC activity: induces ODC activity
